The text below walks through data of patent US12612412B2, “Antiviral heterocyclic compounds” (Enanta Pharmaceuticals, Inc., priority 2021, dated 2026).

Where two headings read alike, the source gives them in different places.

In assay [1] the test system is genotype A, "Long" strain RSV. The experiment in a line: RSV-A assay (CPE protection in Hep-2 cells, ATPlite readout). It counts as cell-based, Human respiratory syncytial virus (HRSV). The following applies: human respiratory syncytial virus, MOI 0.1, CPE protection. The essentials:
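Hep-2 cells (8,000/well) infected with RSV Long strain at MOI 0.1 in the presence of 2-fold compound dilutions in duplicate. After 5 days, cell viability measured by ATPlite luminescence, normalized between virus-only and uninfected cell controls; EC50 reported.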
Background: In ATP-based viability assays light output follows the ATP content of the culture.

Assay [2] deals with HMPV clinical isolate TN/1501/A1. The experiment in a line: HMPV antiviral assay Method-B (clinical isolate TN/1501/A1 in LLC-MK2 cells, ATP-Lite readout). It counts as cell-based, Human metapneumovirus (HMPV). As to conditions: human metapneumovirus, LLC-MK2, 144 h, hMPV WT1501 (clinical isolate TN/1501/A1), 6 days. Summed up:
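EC50 derived by four-parameter logistic fit of percent cell health, measured by ATP-Lite luminescence and normalised to virus-only and uninfected-cell controls. Compounds run in duplicate from 10 μM top, 3-fold, 10 points. Infection: LLC-MK2 cells, MOI 0.014, 2 μg/mL final TPCK-trypsin, serum-free, 6 days at 37° C.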

The mark [3] stands for this setting: RSV-A Long strain, read-out: Human RSV-A (“Long”) EC50.
Setting [4] is: genotype A “Long” strain RSV, read-out: Human RSV-A (“Long”).

Regarding `Cc1nc2c(Cl)cc(C(=O)NC[C@](O)(c3cc4c(c(-c5ccc(F)c(Cl)c5)n3)OC[C@]4(C)C(N)=O)C(F)(F)F)cc2cc1Cl` [Example 884], the values for the EC50 in assay [1] (setting [3]) and in assay [2] were less than 0.2 µM and greater than 0.5 µM, respectively.

In the case of `COc1cc(C(=O)NC[C@](O)(c2cc3c(c(-c4ccc(F)cc4)n2)OC[C@]3(C(N)=O)C(F)F)C2CC2)cc2cn(C3CC3)nc12` [Example 1022], the EC50 in assay [1] (setting [3]) was greater than 0.2 µM; in assay [2], greater than 0.5 µM.

For `COc1cc(C(=O)NC[C@](O)(c2cc3c(c(-c4csc5c(Cl)cccc45)n2)OC[C@]3(C)C(N)=O)C(F)(F)F)cc2cn(C3CC3)nc12` [Example 937], the EC50 in assay [1] (setting [3]) is greater than 0.2 µM; in assay [2] it was greater than 0.5 µM.

As to `COc1cc(C(=O)NC[C@](O)(c2cc3c(c(-c4ccc5c(c4)OC(F)(F)O5)n2)OC[C@]3(C)C(N)=O)C2CC2)cc2cn(C3(F)CC3)nc12` [Example 835], the figures for the EC50 in assay [1] (setting [3]) and in assay [2] were less than 0.2 µM and less than 0.5 µM, respectively.

As for `COc1cc(C(=O)NC[C@](O)(c2cc3c(c(-c4ccc5c(c4)OC(F)(F)O5)n2)OC[C@]3(C(N)=O)C(F)F)C2CC2)cc2cc(Cl)c(C)nc12` [Example 1014], the results for the EC50 in assay [1] (setting [3]) and in assay [2] were less than 0.2 µM and less than 0.5 µM, respectively.

Regarding `COc1cc(C(=O)NC[C@](O)(c2cc3c(c(-c4ccc5c(c4)OC(F)(F)O5)n2)OC[C@]3(C)C(N)=O)C2CC2)cc2cn(C3CC3)nc12` [Example 816], the EC50 was less than 0.2 µM in assay [1] (setting [4]) and less than 0.5 µM in assay [2].

As for `COc1cc(C(=O)NC[C@](O)(c2cc3c(c(-c4cccc5c4OC(F)(F)O5)n2)OC[C@]3(C)C(N)=O)C(F)(F)F)cc2cn(C3CC3)nc12` [Example 928], the EC50 in assay [1] (setting [3]) was less than 0.2 µM; in assay [2], greater than 0.5 µM.

`COc1cc(C(=O)NC[C@](O)(c2cc3c(c(-c4c(F)ccc(Cl)c4F)n2)OC[C@]3(C)C(N)=O)C2CC2)cc2cn(C(F)F)nc12` [Example 1164]: the EC50 in assay [1] (setting [3]) was less than 0.2 µM; in assay [2], less than 0.5 µM.

For `Cc1cnc2c(Cl)cc(C(=O)NC[C@](O)(c3cc4c(c(-c5ccc(C(F)(F)F)cc5)n3)OC[C@]4(C)C(N)=O)C3CC3)cc2c1` [Example 798], the EC50 in assay [1] (setting [4]) is less than 0.2 µM; in assay [2], less than 0.5 µM.

With `C[C@]1(C(N)=O)COc2c1cc([C@@](O)(CNC(=O)c1cc(Cl)c3nn(C4CC4)cc3c1)C(F)(F)F)nc2-c1cccc(F)c1Cl` [Example 1119], the results for the EC50 in assay [1] (setting [3]) and in assay [2] were less than 0.2 µM and less than 0.5 µM, respectively.

With `COc1cc(C(=O)NC[C@](O)(c2cc3c(c(-c4ccc(F)c(Cl)c4)n2)OC[C@]3(C)C(N)=O)C2CC2)cc2cn(C3(F)CC3)nc12` [Example 836], the values for the EC50 in assay [1] (setting [3]) and in assay [2] were less than 0.2 µM and less than 0.5 µM, respectively.

For `C[C@]1(C(N)=O)COc2c1cc([C@@](O)(CNC(=O)c1cc(Cl)c3nn(C(F)F)cc3c1)C1CC1)nc2-c1ccc2c(c1)OC(F)(F)O2` [Example 856], the EC50 in assay [1] (setting [3]) was less than 0.2 µM; in assay [2], less than 0.5 µM.

As to `C[C@]1(C(N)=O)COc2c1cc([C@@](O)(CNC(=O)c1cc(Cl)c3nn(C4CC4)cc3c1)C1CC1)nc2-c1ccc(F)c(F)c1Cl` [Example 564], the EC50 in assay [1] (setting [4]) is less than 0.2 µM; in assay [2], less than 0.5 µM.

In the case of `COc1cc(C(=O)NC[C@](O)(c2cc3c(c(-c4ccc(Cl)c(Cl)c4)n2)OC[C@]3(C)C(N)=O)C(F)(F)F)cc2cn(C3CC3)nc12` [Example 935], the EC50 is less than 0.2 µM in assay [1] (setting [3]) and greater than 0.5 µM in assay [2].

For the molecule `COc1cc(C(=O)NC[C@](O)(c2cc3c(c(-c4ccc(Cl)cc4F)n2)OC[C@]3(C)C(N)=O)C2CC2)cc2cn(C3CC3)nc12` [Example 873], the EC50 is less than 0.2 µM in assay [1] (setting [3]) and less than 0.5 µM in assay [2].

Take `COc1cc(C(=O)NC[C@](O)(c2cc3c(c(-c4cc(Cl)ccc4F)n2)OC[C@]3(C)C(N)=O)C2(F)CC2)cc2cc(Cl)c(C)nc12` [Example 737]: the EC50 in assay [1] (setting [4]) was less than 0.2 µM; in assay [2] it was less than 0.5 µM.

Regarding `Cc1cnc2c(OC(F)F)cc(C(=O)NC[C@](O)(c3cc4c(c(-c5ccc(F)cc5)n3)OC[C@@]4(C(N)=O)C(F)F)C(F)(F)F)cc2c1` [Example 1007], the EC50 was less than 0.2 µM in assay [1] (setting [3]) and less than 0.5 µM in assay [2].
